Patent US20230270114A1, “FUNGICIDAL COMPOSITIONS” (SYNGENTA CROP PROTECTION AG, priority 2020, published 2023)
Where two headings read alike, the source gives them in different places.

What was measured:
[1] = test system: Magnaporthe grisea (Pyricularia oryzae); test: whole plant or invertebrate; assay type: in vivo; details: foliar, read-out: control of Magnaporthe grisea
Phakopsora pachyrhizi = test: Example A8: Phakopsora pachyrhizi / soybean / preventative (soybean rust); assay type: in vivo; details: foliar, soybean leaf disks preventative, inoculated one day after application, compared to untreated control
[2] = test system: Puccinia recondita f. sp. tritici; assay type: in vivo; details: foliar, wheat leaf disc preventative, inoculated 1 day after application, compared to untreated control
[3] = test system: Puccinia recondita f. sp. tritici; assay type: in vivo; details: foliar, 24 h, wheat leaf disc curative, applied 1 day after inoculation, compared to untreated control
Alternaria solani = test: Example A1: Alternaria solani / tomato / leaf disc (early blight); assay type: in vivo; details: foliar, tomato leaf disks inoculated 2 days after application, compared to untreated control
[4] = test system: Glomerella lagenarium (Colletotrichum lagenarium); test: Example A3: Glomerella lagenarium (Colletotrichum lagenarium) / liquid culture (anthracnose); assay type: cell-based; details: Colletotrichum orbiculare; read-out: control of Glomerella lagenarium
Pyrenophora teres = test: Example A12: Pyrenophora teres / barley / leaf disc preventative (net blotch); assay type: in vivo; details: foliar, inoculated 2 days after application, compared to untreated control
[5] = test system: Monographella nivalis (Microdochium nivale); test: Example A6: Monographella nivalis (Microdochium nivale) / liquid culture (foot rot cereals); assay type: cell-based; details: read-out: control of Monographella nivalis
[6] = test system: Mycosphaerella graminicola (Septoria tritici); test: Example A14: Mycosphaerella graminicola (Septoria tritici) / liquid culture (Septoria blotch); assay type: cell-based; details: Zymoseptoria tritici; read-out: control of Mycosphaerella graminicola
[7] = test system: Mycosphaerella arachidis (Cercospora arachidicola); test: Example A7: Mycosphaerella arachidis (Cercospora arachidicola) / liquid culture (early leaf spot); assay type: cell-based; details: read-out: control of Mycosphaerella arachidis

COC(C)C(=O)N(c1cc(F)nc(F)c1)c1nc(C(=O)NC2CCC2)c(C)s1 (centres unmarked) [X.07, N-cyclobutyl-2-[(2,6-difluoro-4-pyridyl)-(2-methoxypropanoyl)amino]-5-methylthiazole-4-carboxamide]
≥ 80%: pest or weed control at 200 ppm [1] | pest or weed control at 200 ppm (Phakopsora pachyrhizi) | pest or weed control at 200 ppm [2]

COC(=O)CCC(=O)N(c1cc(F)nc(F)c1)c1nc(C(=O)NC2CCC2(C)C)c(C)s1 (centres unmarked) [X.23, methyl 4-[(2,6-difluoro-4-pyridyl)-[4-[(2,2-dimethylcyclobutyl)carbamoyl]-5-methyl-thiazol-2-yl]amino]-4-oxo-butanoate]
≥ 80%: pest or weed control at 200 ppm [3] | pest or weed control at 200 ppm (Alternaria solani) | inhibition of growth at 20 ppm [4] | pest or weed control at 200 ppm [1] | pest or weed control at 200 ppm (Pyrenophora teres) | inhibition of growth at 20 ppm [5] | pest or weed control at 200 ppm [2]

CC(=O)N(c1cc(F)nc(F)c1)c1nc(C(=O)NC2CCC2)c(C)s1 [X.13, 2-[acetyl-(2,6-difluoro-4-pyridyl)amino]-N-cyclobutyl-5-methyl-thiazole-4-carboxamide]
≥ 80%: pest or weed control at 200 ppm [1] | pest or weed control at 200 ppm [2]

COc1sc(N(C(C)=O)c2cc(F)nc(F)c2)nc1C(=O)NC1CCC12CCCC2 (centres unmarked) [X.10, 2-[acetyl-(2,6-difluoro-4-pyridyl)amino]-5-methoxy-N-spiro[3.4]octan-3-yl-thiazole-4-carboxamide]
≥ 80%: pest or weed control at 200 ppm [1] | pest or weed control at 200 ppm (Pyrenophora teres)

Cc1sc(N(C(=O)C(C)O)c2cc(F)nc(F)c2)nc1C(=O)NC1CCC12CCCC2 (centres unmarked) [X.05, 2-[(2,6-difluoro-4-pyridyl)-(2-hydroxypropanoyl)amino]-5-methyl-N-spiro[3.4]octan-3-yl-thiazole-4-carboxamide]
≥ 80%: inhibition of growth at 20 ppm [6] | inhibition of growth at 20 ppm [4] | pest or weed control at 200 ppm [1] | inhibition of growth at 20 ppm [5] | pest or weed control at 200 ppm [2]

CC(=O)OCC(=O)N(c1cc(F)nc(F)c1)c1nc(C(=O)NC2CCC2(C)C)c(C)s1 (centres unmarked) [X.08, [2-[(2,6-difluoro-4-pyridyl)-[4-[(2,2-dimethylcyclobutyl)carbamoyl]-5-methyl-thiazol-2-yl]amino]-2-oxo-ethyl] acetate]
≥ 80%: pest or weed control at 200 ppm [3] | pest or weed control at 200 ppm (Alternaria solani) | inhibition of growth at 20 ppm [6] | inhibition of growth at 20 ppm [4] | inhibition of growth at 20 ppm [7] | pest or weed control at 200 ppm [1] | pest or weed control at 200 ppm (Phakopsora pachyrhizi) | pest or weed control at 200 ppm (Pyrenophora teres) | inhibition of growth at 20 ppm [5] | pest or weed control at 200 ppm [2]

CC(=O)N(c1cc(F)nc(F)c1)c1nc(C(=O)NC2CCC23CCCC3)c(C)s1 (centres unmarked) [X.37, 2-[acetyl-(2,6-difluoro-4-pyridyl)amino]-5-methyl-N-spiro[3.4] octan-3-yl-thiazole-4-carboxamide]
≥ 80%: pest or weed control at 200 ppm [1] | pest or weed control at 200 ppm (Pyrenophora teres)

Cc1sc(N(C(=O)Oc2ccccc2)c2cc(F)nc(F)c2)nc1C(=O)NC1CCC1(C)C (centres unmarked) [X.26, phenyl N-(2,6-difluoro-4-pyridyl)-N-[4-[(2,2-dimethylcyclobutyl)carbamoyl]-5-methyl-thiazol-2-yl]carbamate]
≥ 80%: pest or weed control at 200 ppm [1] | inhibition of growth at 20 ppm [5]

CCOC(=O)OC(C)C(=O)N(c1cc(F)nc(F)c1)c1nc(C(=O)NC2CCC2)c(C)s1 (centres unmarked) [X.02, [2-[[4-(cyclobutylcarbamoyl)-5-methyl-thiazol-2-yl]-(2,6-difluoro-4-pyridyl)amino]-1-methyl-2-oxo-ethyl] ethyl carbonate]
≥ 80%: pest or weed control at 200 ppm [1] | pest or weed control at 200 ppm [2]

CCOC(=O)OC(C)C(=O)N(c1cc(F)nc(F)c1)c1nc(C(=O)NC2CCC23CCCC3)c(C)s1 (centres unmarked) [X.04, [2-[(2,6-difluoro-4-pyridyl)-[5-methyl-4-(spiro[3.4]octan-3-ylcarbamoyl)thiazol-2-yl]amino]-1-methyl-2-oxo-ethyl] ethyl carbonate]
≥ 80%: pest or weed control at 200 ppm (Alternaria solani) | inhibition of growth at 20 ppm [6] | inhibition of growth at 20 ppm [4] | inhibition of growth at 20 ppm [7] | pest or weed control at 200 ppm [1] | pest or weed control at 200 ppm (Pyrenophora teres) | inhibition of growth at 20 ppm [5] | pest or weed control at 200 ppm [2]

COC(=O)CC(=O)N(c1cc(F)nc(F)c1)c1nc(C(=O)NC2CCC2(C)C)c(C)s1 (centres unmarked) [X.18, methyl 3-[(2,6-difluoro-4-pyridyl)-[4-[(2,2-dimethylcyclobutyl)carbamoyl]-5-methyl-thiazol-2-yl]amino]-3-oxo-propanoate]
≥ 80%: pest or weed control at 200 ppm [3] | pest or weed control at 200 ppm (Alternaria solani) | inhibition of growth at 20 ppm [6] | inhibition of growth at 20 ppm [4] | inhibition of growth at 20 ppm [7] | pest or weed control at 200 ppm [1] | pest or weed control at 200 ppm (Pyrenophora teres) | inhibition of growth at 20 ppm [5] | pest or weed control at 200 ppm [2]

Cc1sc(N(C(=O)CC(F)(F)F)c2cc(F)nc(F)c2)nc1C(=O)NC1CCC1(C)C (centres unmarked) [X.21, 2-[(2,6-difluoro-4-pyridyl)-(3,3,3-trifluoropropanoyl)amino]-N-(2,2-dimethylcyclobutyl)-5-methyl-thiazole-4-carboxamide]
≥ 80%: pest or weed control at 200 ppm [3] | pest or weed control at 200 ppm (Alternaria solani) | inhibition of growth at 20 ppm [6] | inhibition of growth at 20 ppm [4] | inhibition of growth at 20 ppm [7] | pest or weed control at 200 ppm [1] | inhibition of growth at 20 ppm [5] | pest or weed control at 200 ppm [2]

Cc1sc(N(C(=O)c2ccco2)c2cc(F)nc(F)c2)nc1C(=O)NC1CCC1(C)C (centres unmarked) [X.19, 2-[(2,6-difluoro-4-pyridyl)-(furan-2-carbonyl)amino]-N-(2,2-dimethylcyclobutyl)-5-methyl-thiazole-4-carboxamide]
≥ 80%: pest or weed control at 200 ppm [1] | pest or weed control at 200 ppm [2]

COC(=O)OC(C)C(=O)N(c1cc(F)nc(F)c1)c1nc(C(=O)NC2CCC23CCCC3)c(C)s1 (centres unmarked) [X.03, [2-[(2,6-difluoro-4-pyridyl)-[5-methyl-4-(spiro[3.4]octan-3-ylcarbamoyl)thiazol-2-yl]amino]-1-methyl-2-oxo-ethyl] methyl carbonate]
≥ 80%: inhibition of growth at 20 ppm [6] | inhibition of growth at 20 ppm [4] | pest or weed control at 200 ppm [1] | pest or weed control at 200 ppm (Pyrenophora teres) | inhibition of growth at 20 ppm [5] | pest or weed control at 200 ppm [2]

CCN(CC)C(=O)N(c1cc(F)nc(F)c1)c1nc(C(=O)NC2CCC2(C)C)c(C)s1 (centres unmarked) [X.16, 2-[diethylcarbamoyl-(2,6-difluoro-4-pyridyl)amino]-N-(2,2-dimethylcyclobutyl)-5-methyl-thiazole-4-carboxamide]
≥ 80%: inhibition of growth at 20 ppm [4] | pest or weed control at 200 ppm [1] | inhibition of growth at 20 ppm [5]

COC(=O)N(c1cc(F)nc(F)c1)c1nc(C(=O)NC2CCC2(C)C)c(C)s1 (centres unmarked) [X.32, methyl N-(2,6-difluoro-4-pyridyl)-N-[4-[(2,2-dimethylcyclobutyl)carbamoyl]-5-methyl-thiazol-2-yl]carbamate]
≥ 80%: pest or weed control at 200 ppm [1]

Cc1sc(N(C(=O)Cc2ccccc2)c2cc(F)nc(F)c2)nc1C(=O)NC1CCC1(C)C (centres unmarked) [X.09, 2-[(2,6-difluoro-4-pyridyl)-(2-phenylacetyl)amino]-N-(2,2-dimethylcyclobutyl)-5-methyl-thiazole-4-carboxamide]
≥ 80%: pest or weed control at 200 ppm (Alternaria solani) | inhibition of growth at 20 ppm [6] | inhibition of growth at 20 ppm [4] | pest or weed control at 200 ppm [1] | inhibition of growth at 20 ppm [5] | pest or weed control at 200 ppm [2]

Cc1sc(N(C(=O)c2cccs2)c2cc(F)nc(F)c2)nc1C(=O)NC1CCC1(C)C (centres unmarked) [X.31, 2-[(2,6-difluoro-4-pyridyl)-(thiophene-2-carbonyl)amino]-N-(2,2-dimethylcyclobutyl)-5-methyl-thiazole-4-carboxamide]
≥ 80%: pest or weed control at 200 ppm [1] | inhibition of growth at 20 ppm [5]

CC(=O)OC(C)C(=O)N(c1cc(F)nc(F)c1)c1nc(C(=O)NC2CCC23CCCC3)c(C)s1 (centres unmarked) [X.01, [2-[(2,6-difluoro-4-pyridyl)-[5-methyl-4-(spiro[3.4]octan-3-ylcarbamoyl)thiazol-2-yl]amino]-1-methyl-2-oxo-ethyl] acetate]
≥ 80%: pest or weed control at 200 ppm (Alternaria solani) | inhibition of growth at 20 ppm [6] | inhibition of growth at 20 ppm [4] | pest or weed control at 200 ppm [1] | pest or weed control at 200 ppm (Pyrenophora teres) | inhibition of growth at 20 ppm [5] | pest or weed control at 200 ppm [2]

COCC(=O)N(c1cc(F)nc(F)c1)c1nc(C(=O)NC2CCC2)c(C)s1 [X.12, N-cyclobutyl-2-[(2,6-difluoro-4-pyridyl)-(2-methoxyacetyl)amino]-5-methyl-thiazole-4-carboxamide]
≥ 80%: pest or weed control at 200 ppm [1] | pest or weed control at 200 ppm (Pyrenophora teres) | inhibition of growth at 20 ppm [5] | pest or weed control at 200 ppm [2]

COCCOC(=O)N(c1cc(F)nc(F)c1)c1nc(C(=O)NC2CCC2(C)C)c(C)s1 (centres unmarked) [X.28, 2-methoxyethyl N-(2,6-difluoro-4-pyridyl)-N-[4-[(2,2-dimethylcyclobutyl)carbamoyl]-5-methyl-thiazol-2-yl]carbamate]
≥ 80%: pest or weed control at 200 ppm [3] | pest or weed control at 200 ppm [1] | inhibition of growth at 20 ppm [5] | pest or weed control at 200 ppm [2]
